Assay results from patent publication US7855076B2, “Use of discoidin domain receptor 1 (DDR1) and agents that affect the DDR1/collagen pathway” (The United States of America as represented by the …, priority 2002, dated 2010).

Experiments:
GM-macrophages = assay: HLA-DR expression on GM-macrophages; format: cell-based, human; conditions: pretreatment of 5-day GM-macrophages, 30 minutes
Description: The leukocyte-rich preparation was overlaid on Accu-prep in 50 ml tubes and the tubes were centrifuged at 800×g for 20 minutes at room temperature. PBMC fractions were collected, washed once with PBS at room temperature and twice with complete medium at 4° C. and resuspended in the same medium. Monocytes were further purified by using iso-osmotic Percoll gradient. At this stage, the purity of monocytes was higher than 90%. The cells (5×10^5/ml) were allowed to adhere to the surface of 6-well plates. After a 5-hour incubation at 37° C., nonadherent cells were removed and adherent cells were induced to differentiate into macrophages by incubation in the presence of GM-CSF (50 ng/ml) for 5 to 7 days to produce GM-CSF-induced macrophages (GM-macrophages). Five-day GM-macrophages were incubated for additional 2 days with GM-CSF in the presence of an agonistic anti-human DDR1 monoclonal mouse against the extracellular domain of DDR1 (IgM 513). To measure the effect of SB203580, 5-day GM-macrophages were pretreated with SB203580, for 30 minutes.

THP-1 cells = assay: Adherence of THP-1 cells to coated plates; format: cell-based, human; conditions: DDR1a- or DDR1b-overexpressing THP-1 cells, 30 minutes
Description: 5×10^5 cells/ml were cultured on either BSA (10 mg/ml)- or collagen (20 μg/ml) and BSA-coated plates for 30 (FIG. 2A) or 120 minutes (FIG. 2B) at 37° C. in a 5% CO2 humidified incubator. Normal mouse IgG or anti-β1 integrin blocking IgG was added to measure the effect of β1 integrin in the assay. The number of adherent cells in each 400× visual field was counted. The results are presented as means ±SE of four individual fields. Data are representative of three experiments with two independent clones overexpressing either DDR1a or DDR1b.
To determine the effects of collagen on the functions of DDR1a- and DDR1b-overexpressing THP-1 cells, the cells were incubated on collagen-coated plastic plates. Twenty-four-well plates were coated with 100 μl/well human collagen type I (20 μg/ml) overnight at 4° C., and then with 200 μl/well 10 mg/ml bovine serum albumin (BSA) for 1 hour at 37° C. Cells were plated at the cell density of 1×10^5 cells/ml to the coated wells and were incubated for 30 minutes at 37° C. in 5% CO2 humidified atmosphere. Nonadherent cells were removed by washing three times with PBS. Cells that remained on the coated surface were considered to be adherent, and the number of cells in each 400 field was counted. Results were presented as mean ±SE per 400 field.

DDR1b = target: T1, DDR1b (Homo sapiens, UniProt Q08345); assay: Autophosphorylation of DDR1b overexpressed in THP-1 cells; format: cell-based
T1 construct: one of the clones, clone 11B, contained the full-length human DDR1b cDNA; expressed in transfected cells; host or cells: THP-1 human monocytic leukemia cells, retroviral vector pLXSN, G418-selected clones
T1 sequence (Q08345 19-913): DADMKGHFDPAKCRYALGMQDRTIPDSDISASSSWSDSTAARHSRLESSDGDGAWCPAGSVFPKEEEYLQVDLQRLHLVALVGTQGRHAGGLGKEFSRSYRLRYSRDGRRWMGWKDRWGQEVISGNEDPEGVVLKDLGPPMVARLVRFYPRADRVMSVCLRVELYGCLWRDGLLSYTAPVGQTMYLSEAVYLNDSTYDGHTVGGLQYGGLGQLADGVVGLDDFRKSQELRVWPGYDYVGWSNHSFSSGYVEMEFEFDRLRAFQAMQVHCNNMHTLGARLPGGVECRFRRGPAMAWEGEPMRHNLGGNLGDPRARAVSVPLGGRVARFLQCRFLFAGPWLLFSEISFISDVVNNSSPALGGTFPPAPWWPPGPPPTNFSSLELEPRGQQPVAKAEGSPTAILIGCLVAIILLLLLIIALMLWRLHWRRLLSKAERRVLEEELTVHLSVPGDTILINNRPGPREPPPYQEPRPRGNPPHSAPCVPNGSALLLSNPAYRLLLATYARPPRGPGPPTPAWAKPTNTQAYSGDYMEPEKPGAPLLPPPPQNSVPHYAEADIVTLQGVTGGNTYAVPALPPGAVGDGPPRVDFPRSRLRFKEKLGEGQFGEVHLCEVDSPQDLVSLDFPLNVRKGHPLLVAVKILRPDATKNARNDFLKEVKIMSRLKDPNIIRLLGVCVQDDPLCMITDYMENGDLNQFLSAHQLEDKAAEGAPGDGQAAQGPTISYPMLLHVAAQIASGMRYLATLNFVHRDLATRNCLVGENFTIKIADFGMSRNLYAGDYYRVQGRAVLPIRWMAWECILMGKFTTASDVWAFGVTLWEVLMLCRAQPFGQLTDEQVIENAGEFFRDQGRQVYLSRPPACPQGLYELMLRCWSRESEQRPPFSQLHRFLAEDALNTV
Description: Using the retrovirus-infected cell lines, the effect of collagen type I on the phosphorylation of DDR1 proteins was tested. Two million cells in 3 ml complete medium were added onto collagen type I-coated plastic plates and incubated at 37° C. for various times. Cell lysates were prepared and immunoprecipitation was performed with the anti-DDR1 antibody. One-fourth of the immunoprecipitated samples was subjected to SDS-PAGE and Western blotting. The membranes were blotted with anti-pTyr and anti-DDR1 antibody. Low levels of constitutive autophosphorylation of both receptors were detected. The levels of autophosphorylation increased slightly at 15 minutes and peaked at 90 minutes after activation of the cells on collagen type I-coated plastic plates. The peak level was maintained for up to 240 minutes for DDR1a, which is consistent with the previously reported delayed kinetics of […] autophosphorylation in other cell types (Vogel FASEB J, (Suppl.), S77-S82, 1999). In contrast, autophosphorylation of DDR1b decreased after 90 minutes of collagen-activation.
Parental, mock, DDR1a- or DDR1b-overexpressing THP-1 cells were plated at 5×10^6/ml on uncoated tissue culture plates and stimulated with PMA (10 nM) for 24 hours, and then starved in RMPI 1640 without FCS for 10 hours. Subsequently cells were washed three times with PBS, and then incubated in the presence of 50 μg/ml collagen type I for various times.
Ten million cells were lysed on ice for 20 minutes in a buffer containing 50 mM NaCl, 20 mM Tris-HCl, 50 mM sodium fluoride, 30 mM Na4P2O7, 5 mM EGTA, 3 mM sodium orthovanadate, 1% Triton X-100, 1 mg/ml leupeptin, 1 mM PMSF, 1 mg/ml aprotinin, 1 mg/ml pepstatinA and 100 μM sodium orthovanadate treated with H2O2. […]
Eluted proteins were analyzed on 8% polyacrylamide gels by SDS-PAGE and transferred electrophoretically to nitrocellulose membranes at 150 mA for 1 hour by a semi-dry system. […] To detect phosphorylated or nonphosphorylated p38 MAP kinase or ATF-2, 20 μl of cell lysates were directly mixed with 20 μl of sample buffer and then analyzed.

[1] = PMA-treated cells, 50 μg/ml collagen type I

time autophosphorylation detectable (DDR1b; [1]) [min] | time of peak autophosphorylation (DDR1b; [1]) [min] | time of peak autophosphorylation (DDR1b; collagen type I-coated plates, cells not PMA-treated) [min] | Compound | agonistic antibody-induced increase of HLA-DR-positive cells (GM-macrophages) | cells adhered to collagen-coated plates (THP-1 cells)
 |  |  | C[S+]([O-])c1ccc(-c2nc(-c3ccncc3)c(-c3ccc(F)cc3)[nH]2)cc1 (centres unmarked) [SB203580] | completely inhibited | 
30 | 60 | 90 | collagen |  | ~62 % of total cells
